Literature values, collected in US20040047892A1, “Filler composition for soft tissue augmentation and reconstructive surgery” (priority 2003, published 2004).

Substance: collagen
- time until the filler disappears (depending on the patient and site of injection): within a few months
- share of the population allergic (in vivo): about 3%
